{"source": "patent US11939403B2", "about": "“Peptide-peptoid scaffolds” (The Regents of the University of California, priority 2020, dated 2024)", "key": {"[1]": {"assay": "Oral bioavailability in mice", "assay_type": "in vivo", "conditions": "mice, oral", "source_text": "Based on their permeabilities in PAMPA and MDCK cells, the in vivo pharmacokinetics of 5 of these 6 pure compound library members were investigated (B03 was not included in the oral PK study, because of its low (small) PAMPA and MDCK permeabilities). […] To test whether metabolism and efflux were the main factors contributing to the low oral bioavailability (BA), mice were pretreated with either the CYP inhibitor […] (ABT), the P-gp inhibitor elacridar (GF120918), or a combination of both the CYP and P-gp inhibitors. […] Combining the inhibitors also produced oral bioavailabilities that reflected the compounds' relative PAMPA permeabilities."}, "[2]": {"conditions": "pH 7.4", "experimental": "(§1) For each of these six pure compounds, calculated (atomistic) octanol/water partition coefficient (A Log P), aqueous solubility (Aq. Sol), PAMPA and MDCK permeabilities, experimental octanol/water partition coefficient (Log D (oct/w)), P-gp efflux ratios, microsomal stability, and serum protein binding were determined (Table 1 and FIG. 5)."}, "physchem": {"assay": "physchem", "conditions": "pH 7.4, LogD (oct/w)", "experimental": "as §1"}, "P-gp": {"target": "P-gp (Homo sapiens, UniProt P08183)", "sequence (P08183 whole entry)": "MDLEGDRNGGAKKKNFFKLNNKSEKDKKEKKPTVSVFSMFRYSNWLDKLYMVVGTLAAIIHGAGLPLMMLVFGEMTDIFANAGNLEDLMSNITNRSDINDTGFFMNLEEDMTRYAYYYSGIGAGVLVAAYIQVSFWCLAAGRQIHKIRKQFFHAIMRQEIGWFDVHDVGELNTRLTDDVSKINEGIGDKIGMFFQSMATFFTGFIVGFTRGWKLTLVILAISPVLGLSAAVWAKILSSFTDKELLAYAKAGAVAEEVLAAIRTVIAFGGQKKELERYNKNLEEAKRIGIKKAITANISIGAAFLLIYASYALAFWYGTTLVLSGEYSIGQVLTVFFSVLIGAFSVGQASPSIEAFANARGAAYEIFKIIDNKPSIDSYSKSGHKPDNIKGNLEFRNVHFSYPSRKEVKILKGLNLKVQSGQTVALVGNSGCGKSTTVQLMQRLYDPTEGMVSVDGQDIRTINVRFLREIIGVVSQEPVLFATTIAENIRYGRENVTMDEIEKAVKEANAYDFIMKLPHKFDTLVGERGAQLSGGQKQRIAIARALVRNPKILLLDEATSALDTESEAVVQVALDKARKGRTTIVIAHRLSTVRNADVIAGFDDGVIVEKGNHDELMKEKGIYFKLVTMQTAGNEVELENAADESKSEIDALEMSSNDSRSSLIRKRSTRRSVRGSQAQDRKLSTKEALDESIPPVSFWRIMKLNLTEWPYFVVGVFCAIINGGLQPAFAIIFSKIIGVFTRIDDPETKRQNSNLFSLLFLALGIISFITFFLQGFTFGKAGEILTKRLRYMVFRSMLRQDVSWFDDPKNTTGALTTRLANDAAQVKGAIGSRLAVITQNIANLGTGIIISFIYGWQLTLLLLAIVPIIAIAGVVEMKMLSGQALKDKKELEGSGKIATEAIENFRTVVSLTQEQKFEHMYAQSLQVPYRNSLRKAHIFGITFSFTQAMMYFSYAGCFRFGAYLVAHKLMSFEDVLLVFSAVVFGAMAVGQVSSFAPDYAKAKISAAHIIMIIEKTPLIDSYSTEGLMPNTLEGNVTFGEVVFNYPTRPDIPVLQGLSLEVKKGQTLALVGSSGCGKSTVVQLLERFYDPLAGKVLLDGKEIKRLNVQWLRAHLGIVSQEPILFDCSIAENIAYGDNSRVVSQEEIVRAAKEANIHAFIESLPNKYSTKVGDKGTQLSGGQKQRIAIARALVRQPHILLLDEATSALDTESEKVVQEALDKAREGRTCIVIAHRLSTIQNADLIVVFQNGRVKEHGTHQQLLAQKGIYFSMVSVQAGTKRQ", "conditions": "MDCK, 10 μM"}, "[3]": {"assay": "Aqueous solubility, Japanese Pharmacopoeia Second Fluid (pH 6.8)", "assay_type": "physicochemical", "conditions": "Japanese Pharmacopoeia Second Fluid, pH 6.8, pure compounds, values in text; read-out: Aqueous solubility", "experimental": "as §1"}, "[4]": {"assay": "PAMPA permeability under standard (library screen) conditions", "assay_type": "in vitro ADME", "conditions": "pure compounds, donor well concentration 20 μM", "source_text": "Libraries A and B were synthesized separately as mixtures using solid phase split-pool peptide synthesis, incorporating peptoid side chains as primary amines using the submonomer method. (Zuckermann R N et al. Efficient Method for the Preparation of Peptoids [Oligo(N-Substituted Glycines)] by Submonomer Solid-Phase Synthesis. J Am Chem Soc. (1992) 114, 10646-7. doi: DOI 10.1021/ja00052a076. PubMed PMID: WOS:A1992KD71700076.) The libraries were cleaved, cyclized in solution, and roughly purified using solid phase extraction on C18 media. Parallel artificial membrane permeability assays (PAMPA) were used to measure passive permeabilities; PAMPA permeabilities within each library varied parabolically as a function of A Log P (FIG. 2A).\nPAMPA permeability studies on these six pure compounds were performed initially under the same conditions as those used in the original library screen, […] of each compound in the original library. […] Without being bound by theory, it was hypothesized that the pure compounds were precipitating in the donor well or adhering to the walls of the apparatus, and that as mixtures they could act as pseudo-detergents (or mutual blocking agents) to help prevent escape from solution (such as through aggregation or adsorption). […]"}, "[5]": {"assay": "PAMPA permeability of pure compounds under sink conditions", "assay_type": "in vitro ADME", "conditions": "detergents in donor and acceptor wells (sink conditions)", "procedure": "PAMPA permeability studies on these six pure compounds were performed initially under the same conditions as those used in the original library screen, using a concentration of 1 μM in the donor well based on the estimated concentration of each compound in the original library. […] Without being bound by theory, it was hypothesized that the pure compounds were precipitating in the donor well or adhering to the walls of the apparatus, and that as mixtures they could act as pseudo-detergents (or mutual blocking agents) to help prevent escape from solution (such as through aggregation or adsorption). Therefore, the PAMPA permeabilities of the pure compounds using detergents in the donor and acceptor wells as “sink” conditions were re-investigated. Using these conditions, the permeability trends were similar to those observed in the Libraries. […] The PAMPA permeabilities of the scaffold A compounds were high (large) across the entire A Log P range, whereas the permeabilities of scaffold B compounds trended upward (greater) along with A Log P."}, "Microsomal stability": {"assay": "Microsomal stability", "assay_type": "in vitro ADME", "conditions": "remaining rate after 30 min of incubation with pooled liver microsomes (0.1 mg/mL, rats)"}}, "note": "Where two headings read alike, the source gives them in different places. Marks after values point to notes of the source that are not given here. Square brackets hold non-standard residues; d marks the D form. Peptide text beside a SMILES is read from it. NCyclohexylmethylGly = O=C(O)CNCC1CCCCC1; NMeL = CN[C@@H](CC(C)C)C(=O)O; NEtG = CCNCC(=O)O", "data": [{"smiles": "CCN1CC(=O)N[C@@H](CC(C)C)C(=O)N2CCC[C@@H]2C(=O)N(C)[C@@H](CC(C)C)C(=O)N[C@@H](C)C(=O)N(CC2CCCCC2)CC(=O)N[C@@H](Cc2ccccc2)C(=O)N2CCC[C@@H]2C(=O)N(C)[C@@H](CC(C)C)C(=O)N[C@@H](C)C1=O", "note": "[Compound B08] (cyclo([NEtG]L[dP][NMeL]A[NCyclohexylmethylGly]F[dP][NMeL]A))", "values": [{"measurement": "Oral bioavailability, no inhib.", "setting": "[1]; no inhibitors", "result": 6, "unit": "%"}, {"measurement": "Oral bioavailability, +CYP inhib.", "setting": "[1]; pretreatment with 1-aminobenztriazole (CYP inhibitor)", "result": "148^c %"}, {"measurement": "Oral bioavailability, +CYP inhib. +P-gp inhib.", "setting": "[1]; pretreatment with 1-aminobenztriazole and GF120918", "result": "101^c %"}, {"measurement": "Oral bioavailability, +P-gp inhib.", "setting": "[1]; pretreatment with GF120918 (P-gp inhibitor)", "result": 13, "unit": "%"}, {"measurement": "bioavailability", "setting": "[1]; mouse, in vivo, po, pretreatment with 1-aminobenztriazole and GF120918, read-out: Oral bioavailability, +CYP inhib. +P-gp inhib.", "result": "> 100", "unit": "%"}, {"measurement": "LogD (oct/w)", "setting": "[2]", "result": 4.8}, {"measurement": "logD", "setting": "physchem", "result": "> 4.8"}, {"measurement": "P-gp R-value", "setting": "P-gp", "result": 19.2}, {"measurement": "solubility", "setting": "[3]", "result": 20, "unit": "µg/mL"}, {"measurement": "PAMPA membrane transport", "setting": "[4]", "result": "some membrane transport was observed"}, {"measurement": "Papp", "setting": "[5]; PAMPA, read-out: PAMPA Perm.", "result": 50, "unit": "×10⁻⁶ cm/s"}, {"measurement": "PAMPA Perm.", "setting": "[5]", "result": ">50", "unit": "×10⁻⁶ cm/s"}, {"measurement": "remaining at 0.5 h", "setting": "Microsomal stability; rat", "result": 53, "unit": "%"}, {"measurement": "Microsomal Stability", "setting": "Microsomal stability", "result": 53, "unit": "%"}, {"measurement": "MDCK Perm.", "setting": "MDCK cells", "result": 15, "unit": "×10⁻⁶ cm/s"}, {"measurement": "MDCK Perm.", "setting": "MDCK cells; dog", "result": 15.3, "unit": "×10⁻⁶ cm/s"}]}]}
